By pIC50 is commonly meant the IC50 on a negative log10 scale, so that one unit is a factor of ten.

pIC50: −log10 of the molar value.

Series [1] deals with Voltage-gated inwardly rectifying potassium channel KCNH2 (Homo sapiens, UniProt Q12809). Put plainly: Inhibition of human ERG by dofetilide binding assay.
Series [2] has as its target T1, Alpha-2B adrenergic receptor (Homo sapiens, UniProt P18089).
T1 sequence (P18089 whole entry): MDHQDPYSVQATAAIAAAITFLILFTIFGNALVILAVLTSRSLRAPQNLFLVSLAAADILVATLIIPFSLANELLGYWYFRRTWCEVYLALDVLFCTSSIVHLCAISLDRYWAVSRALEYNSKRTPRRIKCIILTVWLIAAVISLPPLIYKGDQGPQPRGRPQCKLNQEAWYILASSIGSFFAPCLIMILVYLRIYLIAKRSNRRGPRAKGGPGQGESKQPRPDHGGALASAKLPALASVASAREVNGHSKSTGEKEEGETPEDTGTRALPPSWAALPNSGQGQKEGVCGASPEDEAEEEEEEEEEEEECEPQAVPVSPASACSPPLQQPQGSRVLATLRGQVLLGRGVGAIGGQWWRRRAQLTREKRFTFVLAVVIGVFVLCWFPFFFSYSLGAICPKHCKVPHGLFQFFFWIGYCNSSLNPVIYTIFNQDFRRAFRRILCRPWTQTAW
The experiment in a line: Inhibition of alpha-adrenoceptor 2B (unknown origin).

Series [3] has as its target Beta-secretase 1 (Homo sapiens, UniProt P56817). The experiment in a line: Inhibition of BACE1 (unknown origin).
Series [4] can be described thus: Volume of distribution at steady state in cannulated fed Sprague-Dawley rat at 2 mg/kg, iv. The series is classed as ADME, organism-based. Set-up: dose 2 mg/kg, route intravenous. The settings on record: in vivo, read-out: Vdss.
In series [5] the test system is Rattus norvegicus. The experiment in a line: Reduction in mean arterial blood pressure in hypertensive telemetered double-transgenic rat overexpressing human renin and angiotensinogen at 30 mg/kg, po. The series is classed as functional.
For series [6], the target named is T2, Renin (Homo sapiens, UniProt P00797).
T2 sequence (P00797 whole entry): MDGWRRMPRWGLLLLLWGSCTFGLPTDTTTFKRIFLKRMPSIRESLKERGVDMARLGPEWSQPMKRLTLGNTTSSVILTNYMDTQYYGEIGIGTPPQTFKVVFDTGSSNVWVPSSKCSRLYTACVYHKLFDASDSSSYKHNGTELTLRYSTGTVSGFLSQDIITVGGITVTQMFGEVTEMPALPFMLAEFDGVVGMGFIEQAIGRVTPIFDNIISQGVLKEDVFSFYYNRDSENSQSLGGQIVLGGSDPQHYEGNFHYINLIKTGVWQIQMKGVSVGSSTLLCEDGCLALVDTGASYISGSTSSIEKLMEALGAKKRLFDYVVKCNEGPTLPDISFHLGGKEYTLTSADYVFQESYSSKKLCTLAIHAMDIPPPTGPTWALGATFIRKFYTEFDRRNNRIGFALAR
The experiment in a line: Inhibition of human recombinant renin in presence of plasma by TR-FRET assay. In general terms: In TR-FRET formats the signal depends on donor and acceptor labels being close together.

The subject of series [7] is Rattus norvegicus. Put plainly: Reduction in mean arterial blood pressure in hypertensive telemetered double-transgenic rat overexpressing human renin and angiotensinogen at 6 mg/kg, po. The series is classed as functional.
In series [8] the target is T3, Cathepsin E (Homo sapiens, UniProt P14091).
T3 sequence (P14091 whole entry): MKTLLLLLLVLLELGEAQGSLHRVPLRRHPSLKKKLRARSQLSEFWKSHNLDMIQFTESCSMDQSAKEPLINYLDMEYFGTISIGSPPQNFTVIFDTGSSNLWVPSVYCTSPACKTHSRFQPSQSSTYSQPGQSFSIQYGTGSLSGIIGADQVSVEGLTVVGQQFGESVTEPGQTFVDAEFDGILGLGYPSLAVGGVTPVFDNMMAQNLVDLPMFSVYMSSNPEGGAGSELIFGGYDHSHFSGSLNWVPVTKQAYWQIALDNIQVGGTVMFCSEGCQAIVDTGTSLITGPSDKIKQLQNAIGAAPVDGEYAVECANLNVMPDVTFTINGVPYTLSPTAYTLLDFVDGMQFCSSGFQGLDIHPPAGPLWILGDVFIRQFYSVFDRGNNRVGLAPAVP
Put plainly: Inhibition of cathepsin E (unknown origin).

Series [9] addresses Cytochrome P450 2D6 (Homo sapiens, UniProt P10635). Put plainly: Inhibition of CYP2D6 (unknown origin). The series is classed as ADME.
Series [10] deals with T4, Alpha-2A adrenergic receptor (Homo sapiens, UniProt P08913).
T4 sequence (P08913 whole entry): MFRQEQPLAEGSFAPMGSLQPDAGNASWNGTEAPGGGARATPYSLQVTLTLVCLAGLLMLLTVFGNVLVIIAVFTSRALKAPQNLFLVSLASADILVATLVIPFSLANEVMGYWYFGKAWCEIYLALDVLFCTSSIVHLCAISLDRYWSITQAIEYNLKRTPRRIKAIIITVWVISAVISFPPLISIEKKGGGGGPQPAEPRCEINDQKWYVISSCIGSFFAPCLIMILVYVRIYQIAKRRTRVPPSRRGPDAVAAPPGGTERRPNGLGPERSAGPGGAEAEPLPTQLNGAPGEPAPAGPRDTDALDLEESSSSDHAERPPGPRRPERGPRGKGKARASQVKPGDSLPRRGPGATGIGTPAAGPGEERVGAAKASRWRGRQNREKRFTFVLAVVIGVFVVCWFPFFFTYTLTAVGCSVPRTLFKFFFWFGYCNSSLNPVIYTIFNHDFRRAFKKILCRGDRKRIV
The experiment in a line: Inhibition of alpha-adrenoceptor 2A (unknown origin).

Series [11] concerns Rattus norvegicus. The experiment in a line: Plasma clearance in cannulated fed Sprague-Dawley rat at 2 mg/kg, iv. The settings on record: in vivo. The arrangement: dose 2 mg/kg, route intravenous. The series is classed as ADME, organism-based.
The target in series [12] is T5, Beta-secretase 2 (Homo sapiens, UniProt Q9Y5Z0).
T5 sequence (Q9Y5Z0 whole entry): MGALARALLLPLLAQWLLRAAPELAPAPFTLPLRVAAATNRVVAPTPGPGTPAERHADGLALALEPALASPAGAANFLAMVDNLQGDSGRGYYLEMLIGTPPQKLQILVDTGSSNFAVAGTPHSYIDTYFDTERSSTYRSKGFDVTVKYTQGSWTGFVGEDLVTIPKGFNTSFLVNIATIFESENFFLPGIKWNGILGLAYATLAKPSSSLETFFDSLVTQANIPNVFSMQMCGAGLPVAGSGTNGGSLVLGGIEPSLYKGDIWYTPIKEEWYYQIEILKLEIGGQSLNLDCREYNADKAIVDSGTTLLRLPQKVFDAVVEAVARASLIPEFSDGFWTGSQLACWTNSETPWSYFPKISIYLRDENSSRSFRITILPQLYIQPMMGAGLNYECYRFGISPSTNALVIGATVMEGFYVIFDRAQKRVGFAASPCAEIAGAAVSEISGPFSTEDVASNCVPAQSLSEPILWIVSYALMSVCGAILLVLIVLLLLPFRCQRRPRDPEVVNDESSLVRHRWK
The experiment in a line: Inhibition of BACE2 (unknown origin).

The test system of series [13] is Rattus norvegicus. Put plainly: Oral bioavailability in cannulated fed Sprague-Dawley rat at 6 mg/kg. The settings on record: in vivo. The series is classed as ADME, organism-based.

Chain of Cytochrome P450 2D6 (P10635 whole entry): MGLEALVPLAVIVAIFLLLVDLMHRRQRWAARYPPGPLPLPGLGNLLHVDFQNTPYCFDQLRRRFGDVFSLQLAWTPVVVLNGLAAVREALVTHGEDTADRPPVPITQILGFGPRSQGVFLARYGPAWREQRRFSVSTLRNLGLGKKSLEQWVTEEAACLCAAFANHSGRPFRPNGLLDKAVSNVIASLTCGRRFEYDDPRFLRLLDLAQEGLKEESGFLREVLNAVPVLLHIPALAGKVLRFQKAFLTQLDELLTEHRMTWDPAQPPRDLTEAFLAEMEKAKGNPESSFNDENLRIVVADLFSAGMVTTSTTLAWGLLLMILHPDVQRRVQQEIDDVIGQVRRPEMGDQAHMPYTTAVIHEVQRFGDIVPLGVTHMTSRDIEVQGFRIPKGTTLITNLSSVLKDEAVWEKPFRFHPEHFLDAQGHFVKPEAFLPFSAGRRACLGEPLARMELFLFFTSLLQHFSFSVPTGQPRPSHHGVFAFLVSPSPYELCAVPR
Chain of Voltage-gated inwardly rectifying potassium channel KCNH2 (Q12809 whole entry): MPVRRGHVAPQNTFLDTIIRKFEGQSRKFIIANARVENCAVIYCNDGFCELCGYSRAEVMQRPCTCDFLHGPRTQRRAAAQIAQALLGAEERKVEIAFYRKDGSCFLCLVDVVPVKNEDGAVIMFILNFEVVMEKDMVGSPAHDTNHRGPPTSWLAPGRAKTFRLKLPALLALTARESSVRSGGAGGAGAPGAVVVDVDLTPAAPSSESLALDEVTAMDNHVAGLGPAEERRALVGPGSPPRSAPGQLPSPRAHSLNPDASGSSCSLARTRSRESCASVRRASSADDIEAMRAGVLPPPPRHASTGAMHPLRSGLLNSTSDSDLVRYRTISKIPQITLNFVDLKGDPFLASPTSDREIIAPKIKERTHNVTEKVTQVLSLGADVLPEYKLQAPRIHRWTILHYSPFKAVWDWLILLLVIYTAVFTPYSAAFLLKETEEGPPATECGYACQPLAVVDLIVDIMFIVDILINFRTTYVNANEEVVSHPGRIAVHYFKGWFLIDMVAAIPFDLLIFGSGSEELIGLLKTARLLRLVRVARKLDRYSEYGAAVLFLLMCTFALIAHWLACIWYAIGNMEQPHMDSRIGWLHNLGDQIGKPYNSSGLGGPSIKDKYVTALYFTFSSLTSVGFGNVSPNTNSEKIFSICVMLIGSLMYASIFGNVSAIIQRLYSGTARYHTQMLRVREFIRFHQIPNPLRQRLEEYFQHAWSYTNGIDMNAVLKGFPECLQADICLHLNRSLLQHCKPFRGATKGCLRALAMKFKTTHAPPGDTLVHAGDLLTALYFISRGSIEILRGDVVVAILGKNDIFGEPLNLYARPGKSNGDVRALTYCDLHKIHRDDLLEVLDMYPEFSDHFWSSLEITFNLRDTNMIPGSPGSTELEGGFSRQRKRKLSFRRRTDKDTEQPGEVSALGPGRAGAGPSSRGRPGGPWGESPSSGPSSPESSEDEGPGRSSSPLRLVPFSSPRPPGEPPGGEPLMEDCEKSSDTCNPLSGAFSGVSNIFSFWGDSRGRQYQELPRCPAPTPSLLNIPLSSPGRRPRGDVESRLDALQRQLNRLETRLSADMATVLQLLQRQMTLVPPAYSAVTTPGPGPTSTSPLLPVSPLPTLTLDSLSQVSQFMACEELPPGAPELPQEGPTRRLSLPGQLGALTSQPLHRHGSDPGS
Chain of Beta-secretase 1 (P56817 whole entry): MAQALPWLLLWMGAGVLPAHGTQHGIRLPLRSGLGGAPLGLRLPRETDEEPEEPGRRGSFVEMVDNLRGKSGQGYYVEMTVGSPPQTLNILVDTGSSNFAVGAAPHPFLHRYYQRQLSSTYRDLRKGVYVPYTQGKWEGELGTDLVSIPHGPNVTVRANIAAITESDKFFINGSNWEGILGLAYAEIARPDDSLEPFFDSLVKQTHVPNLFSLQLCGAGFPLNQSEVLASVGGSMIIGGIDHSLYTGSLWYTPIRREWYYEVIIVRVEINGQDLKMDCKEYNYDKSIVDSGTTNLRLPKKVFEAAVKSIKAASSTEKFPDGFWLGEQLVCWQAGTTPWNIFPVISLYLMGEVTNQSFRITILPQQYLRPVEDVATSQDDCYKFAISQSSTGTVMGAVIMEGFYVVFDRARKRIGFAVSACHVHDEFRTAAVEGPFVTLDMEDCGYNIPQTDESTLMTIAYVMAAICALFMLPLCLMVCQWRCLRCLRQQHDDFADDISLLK

For `COCCCOc1cc(C(=O)N(C[C@@H]2CNC[C@H]2OC(=O)NCc2ccccc2)C(C)C)ccc1OC`, the pIC50 in series [1] is 4.89; in [2], 6.00; in [3], less than 4.52; in series [6] it was 7.52; in [8] it was less than 4.52; in series [9], less than 4.70. Also, the pIC50 in series [10] was 6.00; in series [12] it was less than 4.52. In addition, in [4], the Vd worked out at 4.9 L/kg. Besides, the Activity in series [5] came out at 62 mmHg; in series [7], 43 mmHg. The molecule further gave a CL in [11] of 2.5 L/h/kg. In series [13], the F turned out to be 57%.

Source of the values: ChEMBL document CHEMBL3400053, “trans-3,4-Disubstituted pyrrolidines as inhibitors of the human aspartyl protease renin. Part II: prime site exploration using an oxygen linker” (Bioorg Med Chem Lett, 2015).
